Assay results taken from PMC6154534, “New Benzimidazole-1,2,4-Triazole Hybrid Compounds: Synthesis, Anticandidal Activity and Cytotoxicity Evaluation” (Molecules : A Journal of Synthetic Chemistry and Natural …, 2017).
Converted amounts (≈) assume the structure as drawn.

Tests used:
[1] = tested on: C. krusei (ATCC 6258); test: Anticandidal broth microdilution (EUCAST EDef 7.1), resazurin fluorometric readout; format: cell-based; conditions: Pichia kudriavzevii, ATCC6258; ATCC 6258, RPMI pH 7, 24 h incubation
Description: (§1) Synthesized compounds (5a-5ad) were evaluated for anticandidal activity against C. albicans (ATCC 24433), C. krusei (ATCC 6258), C. parapsilosis (ATCC 22019) and C. [NT] 90030). MIC50 values were evaluated via fluorometric measurements, using resazurin solution [56, 57]. […] [NT] 90030). MIC readings were carried out twice for each chemical agent. The yeasts were maintained in RPMI after overnight incubation at 37 °C. The inocula of test microorganisms adjusted to match the turbidity of a MacFarland 0.5 standard tube as determined with a spectrophotometer and the final inoculum size was 0.5-2.5 × 10^5 cfu/mL for antifungal assay. Testing was carried out in RPMI at pH = 7 and the two-fold serial dilutions technique was applied. The last well on the microplates containing only inoculated broth was kept as controls and the last well with no growth of microorganism was recorded to represent the MIC50 expressed in μg/mL. For the antifungal assays, the compounds were dissolved in DMSO. […] The completed plates were incubated for 24 h. At the end of the incubation, resazurin (20 μg/mL) was added into each well to control whether the growth in wells. Then, plates were allowed to incubate for 2 h. MIC50 values were determined using a microplate reader at […].

[2] = tested on: C. albicans (ATCC 24433); test: as above; format: cell-based; conditions: Candida albicans, ATCC24433; ATCC 24433, RPMI pH 7, 24 h incubation
Description: as §1

[3] = tested on: C. parapsilosis (ATCC 22019); test: as above; format: cell-based; conditions: Lodderomyces parapsilosis, ATCC22019; ATCC 22019, RPMI pH 7, 24 h incubation; read-out: MIC50 C. parapsilopsis
Description: as §1

[4] = tested on: C. glabrata (ATCC 90030); test: as above; format: cell-based; conditions: Nakaseomyces glabratus, ATCC90030; ATCC 90030, RPMI pH 7, 24 h incubation
Description: as §1

Row | SMILES | MIC50 [1] | MIC50 [2] | MIC50 [3] | MIC50 [4] | melting point
1 | Cn1c(SCC(=O)c2ccc(Cl)cc2)nnc1-c1ccc(-c2nc3ccccc3[nH]2)cc1 [Compound 5b, 2-((5-(4-(1H-Benzimidazol-2-yl)phenyl)-4-methyl-4H-1,2,4-triazol-3-yl)thio)-1-(4-chlorophenyl)ethan-1-one] | 50 µg/mL (≈ 109 µM) | 25 µg/mL (≈ 54.4 µM) | 50 µg/mL (≈ 109 µM) | 50 µg/mL (≈ 109 µM) | 280.6 °C
2 | CCn1c(SCC(=O)c2ccc(Cl)cc2Cl)nnc1-c1ccc(-c2nc3ccccc3[nH]2)cc1 [Compound 5i, 2-((5-(4-(1H-Benzimidazol-2-yl)phenyl)-4-ethyl-4H-1,2,4-triazol-3-yl)thio)-1-(2,4-dichlorophenyl)ethan-1-one] | 50 µg/mL (≈ 98.3 µM) | 25 µg/mL (≈ 49.2 µM) | 50 µg/mL (≈ 98.3 µM) | 50 µg/mL (≈ 98.3 µM) | 221.7 °C
3 | CC(=O)N1CCN(c2ccc(OCC3COC(Cn4ccnc4)(c4ccc(Cl)cc4Cl)O3)cc2)CC1 (centres unmarked) [Ketoconazole, reference compound] | 1.56 µg/mL (≈ 2.94 µM) | 0.78 µg/mL (≈ 1.47 µM) | 1.56 µg/mL (≈ 2.94 µM) | 1.56 µg/mL (≈ 2.94 µM) | 
4 | Cn1c(SCC(=O)c2ccc(F)cc2)nnc1-c1ccc(-c2nc3ccccc3[nH]2)cc1 [Compound 5c, 2-((5-(4-(1H-Benzimidazol-2-yl)phenyl)-4-methyl-4H-1,2,4-triazol-3-yl)thio)-1-(4-fluorophenyl)ethan-1-one] | 25 µg/mL (≈ 56.4 µM) | 12.5 µg/mL (≈ 28.2 µM) | 12.5 µg/mL (≈ 28.2 µM) | 25 µg/mL (≈ 56.4 µM) | 259.8 °C
5 | CCn1c(SCC(=O)c2ccccc2)nnc1-c1ccc(-c2nc3ccc(F)cc3[nH]2)cc1 [Compound 5z, 2-((4-Ethyl-5-(4-(6-fluoro-1H-benzimidazol-2-yl)phenyl)-4H-1,2,4-triazol-3-yl)thio)-1-phenylethan-1-one] | 50 µg/mL (≈ 109 µM) | 12.5 µg/mL (≈ 27.3 µM) | 50 µg/mL (≈ 109 µM) | 25 µg/mL (≈ 54.6 µM) | 253.6 °C
6 | CCn1c(SCC(=O)c2ccc(Cl)cc2)nnc1-c1ccc(-c2nc3ccccc3[nH]2)cc1 [Compound 5g, 2-((5-(4-(1H-Benzimidazol-2-yl)phenyl)-4-ethyl-4H-1,2,4-triazol-3-yl)thio)-1-(4-chlorophenyl)ethan-1-one] | 25 µg/mL (≈ 52.7 µM) | 25 µg/mL (≈ 52.7 µM) | 50 µg/mL (≈ 105 µM) | 50 µg/mL (≈ 105 µM) | 242.6 °C
7 | CCn1c(SCC(=O)c2ccc(F)cc2)nnc1-c1ccc(-c2nc3ccccc3[nH]2)cc1 [Compound 5h, 2-((5-(4-(1H-Benzimidazol-2-yl)phenyl)-4-ethyl-4H-1,2,4-triazol-3-yl)thio)-1-(4-fluorophenyl)ethan-1-one] | 12.5 µg/mL (≈ 27.3 µM) | 12.5 µg/mL (≈ 27.3 µM) | 25 µg/mL (≈ 54.6 µM) | 25 µg/mL (≈ 54.6 µM) | 231.3 °C
8 | Cn1c(SCC(=O)c2ccccc2)nnc1-c1ccc(-c2nc3ccc(Cl)cc3[nH]2)cc1 [Compound 5k, 2-((5-(4-(6-Chloro-1H-benzimidazol-2-yl)phenyl)-4-methyl-4H-1,2,4-triazol-3-yl)thio)-1-phenylethan-1-one] | 25 µg/mL (≈ 54.4 µM) | 12.5 µg/mL (≈ 27.2 µM) | 12.5 µg/mL (≈ 27.2 µM) | 25 µg/mL (≈ 54.4 µM) | 260 °C
9 | CCn1c(SCC(=O)c2ccccc2)nnc1-c1ccc(-c2nc3ccccc3[nH]2)cc1 [Compound 5f, 2-((5-(4-(1H-Benzimidazol-2-yl)phenyl)-4-ethyl-4H-1,2,4-triazol-3-yl)thio)-1-phenylethan-1-one] | 100 µg/mL (≈ 228 µM) | 100 µg/mL (≈ 228 µM) | 100 µg/mL (≈ 228 µM) | 100 µg/mL (≈ 228 µM) | 220.9 °C
10 | Cn1c(SCC(=O)c2ccccc2)nnc1-c1ccc(-c2nc3ccccc3[nH]2)cc1 [Compound 5a, 2-((5-(4-(1H-Benzimidazol-2-yl)phenyl)-4-methyl-4H-1,2,4-triazol-3-yl)thio)-1-phenylethan-1-one] | 100 µg/mL (≈ 235 µM) | 100 µg/mL (≈ 235 µM) | 100 µg/mL (≈ 235 µM) | 100 µg/mL (≈ 235 µM) | 269.5 °C
11 | OC(Cn1cncn1)(Cn1cncn1)c1ccc(F)cc1F [Fluconazole, reference compound] | 1.56 µg/mL (≈ 5.09 µM) | 0.78 µg/mL (≈ 2.55 µM) | 0.78 µg/mL (≈ 2.55 µM) | 1.56 µg/mL (≈ 5.09 µM) | 
